Values after ≈ are worked out from the molar mass of the structure shown.
What was measured:
Folsomia candida = conditions: chronic/long-term; reproduction
Apis mellifera = conditions: acute, mortality
Canidae = conditions: oral, Dog Other, neurology
Daphnia magna = conditions: chronic/long-term; growth
Hypoaspis aculeifer = conditions: chronic/long-term; duration: 14 days; mortality
Lepomis macrochirus = conditions: acute; duration: 96 hours; mortality
Oncorhynchus mykiss = conditions: chronic/long-term; duration: 91 days; development
Oryctolagus sp. = conditions: developmental; development
Rattus norvegicus = conditions: acute; M; mortality
Aphidius rhopalosiphi = assay: LR50; higher = less toxic; conditions: not reported; mortality
Bibionidae = conditions: chronic/long-term; other

Row | Compound | NOEC (Folsomia candida) | LD50 (Apis mellifera; duration: 48 hours, dermal) | LD50 (Apis mellifera; oral, unspecified) | NOAEL (Canidae; acute) | NOAEL (Canidae; chronic, duration: 1 years) | LEL (Colinus virginianus; acute, oral, M) | NOEC (Colinus virginianus; reproduction developmental, M/F) | LEC (Colinus virginianus; short-term, oral, diet) | NOEC (Daphnia magna) | NOEC (Hypoaspis aculeifer) | LC50 (Lepomis macrochirus) | NOEC (Oncorhynchus mykiss) | NOAEL (Oryctolagus sp.) | LD50 (Rattus norvegicus) | LC50 (Tagia sp.; acute, duration: 14 days, mortality) | NOEC (Tagia sp.; chronic/long-term, duration: 8 weeks, reproduction) | LR50 (Aphidius rhopalosiphi) | NOEC (Bibionidae)
1 | CCOP(=O)(NC(C)C)Oc1ccc(S(C)(=O)=O)c(C)c1 (stereo not given) [Fenamiphos sulfone] | 3.75 mg/kg |  |  |  |  |  |  |  |  |  |  |  |  |  |  |  |  | 
2 | CCOP(=O)(NC(C)C)Oc1ccc(SC)c(C)c1 (stereo not given) [Fenamiphos] | 0.313 mg/kg | 0.28 µg/piece | 0.45 µg/piece | 0.25 mg/kg-day | 0.083 mg/kg-day | 0.8 mg/kg-day | 0.2 mg/kg-day | 6 mg/kg-day | 0.00012 mg/L | 1.33 mg/kg | 9.3 ng/mL (≈ 0.0307 µM) | 0.0038 mg/L | 0.3 mg/kg-day | 6 mg/kg | 888 mg/kg | < 6000 g/ha | 0.175 g/ha | 
3 | CCOP(=O)(NC(C)C)Oc1ccc(S(C)=O)c(C)c1 (stereo not given) [Fenamiphos sulfoxide] | 2 mg/kg |  |  |  |  |  |  |  |  |  |  |  |  |  |  |  |  | 0.058 mg/L
